Test results published in patent US20130217913A1, “Antimalarial Drug Comprising Alaremycin or Derivative Thereof as Active Ingredient” (SBI Pharmaceuticals Co., Ltd., priority 2010, published 2013).

Experiments:
human malaria parasites [1] = assay: [3H]-hypoxanthine incorporation (de novo nucleic acid synthesis) in infected human red blood cells, Example 2; format: cell-based; conditions: for specific radioactivity incorporation, [^3H]-hypoxanthine: 25 hours, value at 0.1 μM set to 100%
Protocol: Human red blood cells infected at an infection rate of 2% with ring-stage human malaria parasites were cultured in RPMI1640 medium containing AlbuMAX-II at 37° C. and a hematocrit of 4%. 50 μL of a medium containing Alaremycin or any of the other compounds shown in Table 2 was mixed with 50 μL of the culture to the indicated concentrations, to which [^3H]-hypoxanthine was then added, followed by culture in a 96-well plate at 37° C. The repeat number was 2 for each concentration. After 25 hours, they were examined and the amount β-rays released from [^3H]-hypoxanthine incorporated into a nucleic acid with de novo nucleic acid synthesis was measured using a scintillation counter. The averages of the measured values were calculated, and the specific radioactivity incorporation was calculated by setting the measured value in the experiment for which each compound is contained at a final concentration of 0.1 μM, to 100%.

human malaria parasites [2] = assay: [14C]-isoleucine incorporation (de novo protein synthesis) in infected human red blood cells, Example 1; format: cell-based; conditions: 25 hours, value at 0.01 μM set to 100%
Protocol: (§1) Human red blood cells infected at an infection rate of 2% with ring-stage human malaria parasites were cultured in RPMI1640 medium containing AlbuMAX-II (Invitrogen) at 37° C. and a hematocrit of 4%. 50 μL of the culture was mixed with 50 μL of a medium containing Alaremycin to the concentrations shown in Table 1, to which [^3H]-hypoxanthine and [^14C]-isoleucine isoleucine were then added, followed by culture in a 96-well plate at 37° C. The repeat number was 2 for each concentration. After 25 hours, they were examined and the amount of (3-rays released from [^3H]-hypoxanthine incorporated into a nucleic acid with de novo nucleic acid synthesis or from [^14C]-isoleucine incorporated into a protein with de novo protein synthesis was measured using a scintillation counter. The averages of the measured values were calculated, and the specific radioactivity incorporation was calculated by setting the measured value in the experiment for which Alaremycin was contained at a final concentration of 0.01 μM, to 100%. The results are shown in Table 1.

human malaria parasites [3] = assay: [3H]-hypoxanthine incorporation (de novo nucleic acid synthesis) in infected human red blood cells, Example 1; format: cell-based; conditions: for Specific Radioactivity Incorporation (%) [^3H]-Hypoxanthine: 25 hours, value at 0.01 μM set to 100%
Protocol: as §1

[4] = biological target: porphobilinogen synthase (PBGS) (Pseudomonas aeruginosa, UniProt Q59643); conditions: Non-patent Document 3; cited from earlier work
Escherichia coli = conditions: Non-patent Documents 2, 3; cited from earlier work
Pseudomonas aeruginosa = conditions: Non-patent Document 3; cited from earlier work

Chain of porphobilinogen synthase (PBGS) (Q59643 whole entry): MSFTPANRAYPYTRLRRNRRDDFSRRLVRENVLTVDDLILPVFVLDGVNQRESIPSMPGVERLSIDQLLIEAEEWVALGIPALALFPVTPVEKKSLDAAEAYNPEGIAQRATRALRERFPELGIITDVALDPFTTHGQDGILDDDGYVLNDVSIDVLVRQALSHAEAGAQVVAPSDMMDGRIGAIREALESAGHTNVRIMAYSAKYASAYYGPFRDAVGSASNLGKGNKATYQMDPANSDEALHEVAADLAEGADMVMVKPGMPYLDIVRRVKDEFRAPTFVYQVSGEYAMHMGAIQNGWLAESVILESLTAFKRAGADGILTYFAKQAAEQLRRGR

O=C(O)CCC(=O)CCC(=O)CCC(=O)O [4,7-Dioxosebacic acid, 4,7-dioxosebacic acid]
specific radioactivity incorporation, [^3H]-hypoxanthine (human malaria parasites [1]; 0.1 μM): 100% | specific radioactivity incorporation, [^3H]-hypoxanthine (human malaria parasites [1]; 1 μM): 110.3% | specific radioactivity incorporation, [^3H]-hypoxanthine (human malaria parasites [1]; 5 μM): 106.9% | specific radioactivity incorporation, [^3H]-hypoxanthine (human malaria parasites [1]; 10 μM): 103.4% | specific radioactivity incorporation, [^3H]-hypoxanthine (human malaria parasites [1]; 50 μM): 108% | specific radioactivity incorporation, [^3H]-hypoxanthine (human malaria parasites [1]; 100 μM): 102.1% | specific radioactivity incorporation, [^3H]-hypoxanthine (human malaria parasites [1]; 500 μM): 106.8% | specific radioactivity incorporation, [^3H]-hypoxanthine (human malaria parasites [1]; 1000 μM): 100.1% | specific radioactivity incorporation, [^3H]-hypoxanthine (human malaria parasites [1]; 5000 μM): 100% | specific radioactivity incorporation, [^3H]-hypoxanthine (human malaria parasites [1]; 10000 μM): 97.1%

NCC(=O)CCC(=O)O [5-Aminolevulinic acid, 5-aminolevulinic acid]
specific radioactivity incorporation, [^3H]-hypoxanthine (human malaria parasites [1]; 0.1 μM): 100% | specific radioactivity incorporation, [^3H]-hypoxanthine (human malaria parasites [1]; 1 μM): 102.7% | specific radioactivity incorporation, [^3H]-hypoxanthine (human malaria parasites [1]; 5 μM): 108.5% | specific radioactivity incorporation, [^3H]-hypoxanthine (human malaria parasites [1]; 10 μM): 104.4% | specific radioactivity incorporation, [^3H]-hypoxanthine (human malaria parasites [1]; 50 μM): 97.3% | specific radioactivity incorporation, [^3H]-hypoxanthine (human malaria parasites [1]; 100 μM): 101.2%

C=C(NC(C)=O)C(=O)CCC(=O)O [Alaremycin, 5-acetamido-4-oxo-5-hexenoic acid]
specific radioactivity incorporation, [^3H]-hypoxanthine (human malaria parasites [1]; 0.1 μM): 100% | specific radioactivity incorporation, [^3H]-hypoxanthine (human malaria parasites [1]; 1 μM): 100.5% | specific radioactivity incorporation, [^3H]-hypoxanthine (human malaria parasites [1]; 5 μM): 90.7% | specific radioactivity incorporation, [^3H]-hypoxanthine (human malaria parasites [1]; 10 μM): 83.8% | specific radioactivity incorporation, [^3H]-hypoxanthine (human malaria parasites [1]; 50 μM): 2.8% | specific radioactivity incorporation, [^3H]-hypoxanthine (human malaria parasites [1]; 100 μM): 1.6% | inhibition of nucleic acid metabolism in human malaria parasites (in words) (human malaria parasites [1]; compared to succinylacetone and 4,7-dioxosebacic acid): sufficiently inhibit nucleic acid metabolism in human malaria parasites in a significantly low concentration | Specific Radioactivity Incorporation (%) [^14C]-Isoleucine (human malaria parasites [2]; 0.01 μM): 100% | Specific Radioactivity Incorporation (%) [^14C]-Isoleucine (human malaria parasites [2]; 0.1 μM): 93.3% | Specific Radioactivity Incorporation (%) [^14C]-Isoleucine (human malaria parasites [2]; 1 μM): 88.8% | Specific Radioactivity Incorporation (%) [^14C]-Isoleucine (human malaria parasites [2]; 5 μM): 84.7% | Specific Radioactivity Incorporation (%) [^14C]-Isoleucine (human malaria parasites [2]; 10 μM): 64.8% | Specific Radioactivity Incorporation (%) [^14C]-Isoleucine (human malaria parasites [2]; 50 μM): 3.6% | Specific Radioactivity Incorporation (%) [^14C]-Isoleucine (human malaria parasites [2]; 100 μM): 2.1% | Specific Radioactivity Incorporation (%) [^14C]-Isoleucine (human malaria parasites [2]; 200 μM): 1% | Specific Radioactivity Incorporation (%) [^3H]-Hypoxanthine (human malaria parasites [3]; 0.01 μM): 100% | Specific Radioactivity Incorporation (%) [^3H]-Hypoxanthine (human malaria parasites [3]; 0.1 μM): 100.4% | Specific Radioactivity Incorporation (%) [^3H]-Hypoxanthine (human malaria parasites [3]; 1 μM): 92.8% | Specific Radioactivity Incorporation (%) [^3H]-Hypoxanthine (human malaria parasites [3]; 5 μM): 84.8% | Specific Radioactivity Incorporation (%) [^3H]-Hypoxanthine (human malaria parasites [3]; 10 μM): 66.8% | Specific Radioactivity Incorporation (%) [^3H]-Hypoxanthine (human malaria parasites [3]; 50 μM): 2.8% | Specific Radioactivity Incorporation (%) [^3H]-Hypoxanthine (human malaria parasites [3]; 100 μM): 1.5% | Specific Radioactivity Incorporation (%) [^3H]-Hypoxanthine (human malaria parasites [3]; 200 μM): 1.1% | inhibition at 15 µM (human malaria parasites [3]; Homo sapiens, Erythrocyte, 15 μM, rough statement for both [^3H]-hypoxanthine and [^14C]-isoleucine, read-out: inhibition of radioactivity incorporation): ~50% | inhibition at 50 µM (human malaria parasites [3]; Homo sapiens, Erythrocyte, 50 μM, rough statement for both [^3H]-hypoxanthine and [^14C]-isoleucine, read-out: inhibition of radioactivity incorporation): ≥ 95% | inhibition of nucleic acid metabolism and protein synthesis in human malaria parasites (in words) (human malaria parasites [3]; measured as in Example 1, both nucleic acid and protein synthesis): inhibited by Alaremycin in a concentration-dependent manner | inhibition of porphobilinogen synthase (in words) [4]: act as an inhibitor of porphobilinogen synthase (PBGS) | antibacterial activity (in words) (Escherichia coli): has antibacterial activities | antibacterial activity (in words) (Pseudomonas aeruginosa): has antibacterial activities

CC(=O)CC(=O)CCC(=O)O [Succinylacetone, 4,6-dioxoheptanoic acid]
specific radioactivity incorporation, [^3H]-hypoxanthine (human malaria parasites [1]; 0.1 μM): 100% | specific radioactivity incorporation, [^3H]-hypoxanthine (human malaria parasites [1]; 1 μM): 94.4% | specific radioactivity incorporation, [^3H]-hypoxanthine (human malaria parasites [1]; 5 μM): 94.3% | specific radioactivity incorporation, [^3H]-hypoxanthine (human malaria parasites [1]; 10 μM): 94.7% | specific radioactivity incorporation, [^3H]-hypoxanthine (human malaria parasites [1]; 50 μM): 99.8% | specific radioactivity incorporation, [^3H]-hypoxanthine (human malaria parasites [1]; 100 μM): 90.9% | specific radioactivity incorporation, [^3H]-hypoxanthine (human malaria parasites [1]; 500 μM): 94.4% | specific radioactivity incorporation, [^3H]-hypoxanthine (human malaria parasites [1]; 1000 μM): 88.6% | specific radioactivity incorporation, [^3H]-hypoxanthine (human malaria parasites [1]; 5000 μM): 58.8% | specific radioactivity incorporation, [^3H]-hypoxanthine (human malaria parasites [1]; 10000 μM): 21.4%
